Laboratory results published in ChEMBL document CHEMBL3864191 (ACS Med Chem Lett, 2016).

Tests used:
[1] = Cytotoxicity against human DU145 cells assessed as reduction in cell viability after 72 hrs by MTT assay; assay type: functional, cell-based, DU-145; settings: Homo sapiens, DU-145, 72 h
cells [2] = settings: Homo sapiens, MCF7, 72 h
Description: Cytotoxicity against human MCF7 cells assessed as reduction in cell viability after 72 hrs by MTT assay

cells [3] = settings: Homo sapiens, HCT-116, 72 h
Description: Cytotoxicity against human HCT116 cells assessed as reduction in cell viability after 72 hrs by MTT assay

[4] = Cytotoxicity against mouse CT26 cells assessed as reduction in cell viability after 72 hrs by MTT assay; assay type: functional, cell-based; settings: Mus musculus, CT26, 72 h
[5] = Cytotoxicity against HEK293T cells assessed as reduction in cell viability at 0.33 to 100 uM after 72 hrs by MTT assay; assay type: toxicity, cell-based; settings: human, hek-293t
[6] = Cytotoxicity against African green monkey Vero cells assessed as reduction in cell viability at 0.33 to 100 uM after 72 hrs by MTT assay; assay type: toxicity, cell-based; settings: chlorocebus sabaeus
[7] = molecular target: Apoptosis regulator Bcl-2 (Homo sapiens, UniProt P10415); assay: Inhibition of FAM-Bid binding to human BCL2 expressed in Escherichia coli BL21 after 30 mins by fluorescence polarization assay
[8] = molecular target: Induced myeloid leukemia cell differentiation protein Mcl-1 (Homo sapiens, UniProt Q07820); assay: Inhibition of FAM-Bid binding to human MCL1 expressed in Escherichia coli BL21 after 30 mins by fluorescence polarization assay
Chain of Induced myeloid leukemia cell differentiation protein Mcl-1 (Q07820 whole entry): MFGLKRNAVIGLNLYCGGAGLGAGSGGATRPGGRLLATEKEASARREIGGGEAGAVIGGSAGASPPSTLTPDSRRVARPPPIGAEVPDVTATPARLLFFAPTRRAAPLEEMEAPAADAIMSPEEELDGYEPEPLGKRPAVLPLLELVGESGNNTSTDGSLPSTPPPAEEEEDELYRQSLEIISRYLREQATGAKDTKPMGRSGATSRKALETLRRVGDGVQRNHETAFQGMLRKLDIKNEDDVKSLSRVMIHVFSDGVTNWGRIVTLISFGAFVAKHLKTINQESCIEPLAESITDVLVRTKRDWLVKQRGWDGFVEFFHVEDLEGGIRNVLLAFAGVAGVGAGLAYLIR

Chain of Apoptosis regulator Bcl-2 (P10415 whole entry): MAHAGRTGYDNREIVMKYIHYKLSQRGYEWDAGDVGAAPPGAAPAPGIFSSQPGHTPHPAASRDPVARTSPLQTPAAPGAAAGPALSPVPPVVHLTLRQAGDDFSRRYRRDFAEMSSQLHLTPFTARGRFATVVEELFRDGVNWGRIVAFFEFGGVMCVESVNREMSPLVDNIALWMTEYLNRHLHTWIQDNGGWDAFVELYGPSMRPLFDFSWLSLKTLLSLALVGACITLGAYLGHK

Compound	IC50 (cells [2]) [µM]	IC50 (cells [3]) [µM]	IC50 [7] [µM]	Ki [7] [µM]	IC50 [8] [µM]	Ki [8] [µM]	IC50 [1] [µM]	IC50 [4] [µM]	Activity [5]	Activity [6]
Cc1cc2c(c(O)c1-c1c(C)cc3c(c1O)/C(=C/NCCCS(=O)(=O)O)C(=O)C(O)=C3C(C)C)/C(=C/NCCCS(=O)(=O)O)C(=O)C(O)=C2C(C)C	17.7	43.1	–	–	–	–	36	35.6	–	–
Cc1cc2c(c(O)c1-c1c(C)cc3c(c1O)/C(=C/NCc1ccc4c(c1)OCO4)C(=O)C(O)=C3C(C)C)/C(=C/NCc1ccc3c(c1)OCO3)C(=O)C(O)=C2C(C)C	> 100	8.3	–	–	–	–	29.2	> 100	–	–
Cc1cc2c(c(O)c1-c1c(C)cc3c(c1O)/C(=C/NCCCCCC(=O)O)C(=O)C(O)=C3C(C)C)/C(=C/NCCCCCC(=O)O)C(=O)C(O)=C2C(C)C	17.7	23.1	–	–	–	–	27.5	4.54	Non-Toxic	Non-Toxic
COC(=O)c1ccccc1N/C=C1\C(=O)C(O)=C(C(C)C)c2cc(C)c(-c3c(C)cc4c(c3O)/C(=C/Nc3ccccc3C(=O)OC)C(=O)C(O)=C4C(C)C)c(O)c21	24.7	37.3	–	–	–	–	20.9	21.4	–	–
COC(=O)CCCN/C=C1\C(=O)C(O)=C(C(C)C)c2cc(C)c(-c3c(C)cc4c(c3O)/C(=C/NCCCC(=O)OC)C(=O)C(O)=C4C(C)C)c(O)c21 (stereo in doubt; (+)-16)	–	–	0.452	0.167	1.25	0.24	–	–	–	–
COC(=O)CCCN/C=C1\C(=O)C(O)=C(C(C)C)c2cc(C)c(-c3c(C)cc4c(c3O)/C(=C/NCCCC(=O)OC)C(=O)C(O)=C4C(C)C)c(O)c21 (stereo in doubt; (-)-16)	–	–	0.375	0.131	0.937	0.178	–	–	–	–

Continued, in another order:

IC50 (cells [2]) [µM]	IC50 (cells [3]) [µM]	IC50 [7] [µM]	Ki [7] [µM]	IC50 [8] [µM]	Ki [8] [µM]	Compound	IC50 [1] [µM]	IC50 [4] [µM]	Activity [5]	Activity [6]
> 100	0.52	–	–	–	–	COC(=O)[C@H](CCSC)N/C=C1\C(=O)C(O)=C(C(C)C)c2cc(C)c(-c3c(C)cc4c(c3O)/C(=C/N[C@@H](CCSC)C(=O)OC)C(=O)C(O)=C4C(C)C)c(O)c21	17.7	> 100	–	–
> 100	> 100	–	–	–	–	Cc1cc2c(c(O)c1-c1c(C)cc3c(c1O)/C(=C/NC14CC5CC(CC(C5)C1)C4)C(=O)C(O)=C3C(C)C)/C(=C/NC13CC4CC(CC(C4)C1)C3)C(=O)C(O)=C2C(C)C	> 100	> 100	–	–
15.9	48.9	–	–	–	–	Cc1cc2c(c(O)c1-c1c(C)cc3c(c1O)/C(=C/NCCS(=O)(=O)O)C(=O)C(O)=C3C(C)C)/C(=C/NCCS(=O)(=O)O)C(=O)C(O)=C2C(C)C	28.9	3.19	–	–
> 100	> 100	–	–	–	–	Cc1cc2c(c(O)c1-c1c(C)cc3c(c1O)/C(=C/N[C@H]1C[C@@H]4C[C@H]([C@@H]1C)C4(C)C)C(=O)C(O)=C3C(C)C)/C(=C/N[C@H]1C[C@@H]3C[C@H]([C@@H]1C)C3(C)C)C(=O)C(O)=C2C(C)C	> 100	> 100	–	–
19.4	21	–	–	–	–	Cc1cc2c(c(O)c1-c1c(C)cc3c(c1O)/C(=C/NCCC(=O)O)C(=O)C(O)=C3C(C)C)/C(=C/NCCC(=O)O)C(=O)C(O)=C2C(C)C	21.6	67.3	Non-Toxic	Non-Toxic
77.3	77.1	–	–	–	–	COC(=O)[C@@H](N/C=C1\C(=O)C(O)=C(C(C)C)c2cc(C)c(-c3c(C)cc4c(c3O)/C(=C/N[C@H](C(=O)OC)C(C)C)C(=O)C(O)=C4C(C)C)c(O)c21)C(C)C	12.1	5.85	–	–
> 100	> 100	–	–	–	–	Cc1cc2c(c(O)c1-c1c(C)cc3c(c1O)/C(=C/NC1CCC(C(C)(C)C)CC1)C(=O)C(O)=C3C(C)C)/C(=C/NC1CCC(C(C)(C)C)CC1)C(=O)C(O)=C2C(C)C (stereo unspecified)	> 100	21.7	–	–
